# Like-named read-outs stand apart in the source and are kept apart here.
# Experiments:
# Assay type in all cases: cell-based
# [1] = test system: Pseudomonas aeruginosa (P. aeruginosa—ATCC #15442); experiment: Synergy test, microtiter plate high resolution MIC assay, bacterium; settings: for MIC: Pseudomonas aeruginosa
# How it was run: (§1)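 Values derive from Kull synergy index (Qa/QA + Qb/QB, ppm MIC endpoints, alone vs in mixture). Endpoints from high-resolution microtiter MICs spanning 2–10,000 ppm; bacterium ~5×10^6/mL in TSB or M9GY, yeast and mold 5×10^5/mL in PDB.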
# [2] = test system: Escherichia coli (E. coli—ATCC #8739); experiment: as above; settings: Escherichia coli, ATCC8739, 24 h, read-out: MIC of component acting alone (QA / QB)
# How it was run: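 High-resolution MICs were found by adding microbicide to one microtitre column and making ten-fold dilutions with an automated liquid handler, giving endpoints from 2 ppm to 10,000 ppm active ingredient. The MIC is the lowest concentration that prevents growth. E. coli 8739, at roughly 5×10^6 cells per mL, grew in glucose/yeast-extract-supplemented minimal salt medium (M9GY). Values above one indicate antagonism.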
# [3] = test system: Candida albicans (C. albicans—ATCC 10231); experiment: Synergy test, microtiter plate high resolution MIC assay, yeast; settings: for MIC: Candida albicans
# How it was run: as §1
# [4] = test system: Aspergillus niger (A. niger—ATCC 16404); experiment: Synergy test, microtiter plate high resolution MIC assay, mold; settings: for MIC: Aspergillus niger; for SI (calculated synergy index): A. niger 16404, PDB
# How it was run: as §1
smiles,measurement,setting,value
"Cn1sccc1=O [2-methyl-3-isothiazolone, 2-methyl-4-isothiazolin-3-one]",MIC of component acting alone (QA / QB),"[1]; P. aeruginosa 15442, M9GY, 48 hours",30 ppm
same,MIC,"[1]; ATCC15442, 24 h, read-out: MIC of component acting alone (QA / QB), P. aeruginosa 15442, TSB, 24 hours",50 µg/mL
same,MIC,"[1]; ATCC15442, 48 h, read-out: MIC of component acting alone (QA / QB), P. aeruginosa 15442, M9GY, 48 hours",20 µg/mL
same,MIC,"[1]; ATCC15442, 48 h, read-out: MIC of component acting alone (QA / QB), P. aeruginosa 15442, TSB, 48 hours",60 µg/mL
same,MIC,"[1]; ATCC15442, 48 h, read-out: Qa: end-point activity (MIC) of MI in the mixture (MI alone, QA, where Qb = 0), Table 5, P. aeruginosa 15442, M9GY, 48 hours, B = Linoleamidopropyl PG-dimonium chloride phosphate",30 µg/mL
same,MIC,"[1]; ATCC15442, 48 h, read-out: Qa: end-point activity (MIC) of MI in the mixture (MI alone, QA, where Qb = 0), Table 5, P. aeruginosa 15442, TSB, 48 hours, B = Linoleamidopropyl PG-dimonium chloride phosphate",80 µg/mL
same,MIC,"[1]; ATCC15442, 48 h, read-out: Qa: end-point activity (MIC) of MI in the mixture (MI alone, QA, where Qb = 0), Table 6, P. aeruginosa 15442, TSB, 48 hours, B = Cocamidopropyl PG-dimonium chloride phosphate",80 µg/mL
same,MIC,"[1]; ATCC15442, 72 h, read-out: MIC of component acting alone (QA / QB), P. aeruginosa 15442, TSB, 72 hours",70 µg/mL
same,MIC,"[1]; ATCC15442, 72 h, read-out: Qa: end-point activity (MIC) of MI in the mixture (MI alone, QA, where Qb = 0), Table 6, P. aeruginosa 15442, M9GY, 72 hours, B = Cocamidopropyl PG-dimonium chloride phosphate",30 µg/mL
same,SI (calculated synergy index),"[1]; Table 5, P. aeruginosa 15442, M9GY, 48 hours",1.00
same,SI (calculated synergy index),"[1]; Table 5, P. aeruginosa 15442, TSB, 48 hours",1.00
same,SI (calculated synergy index),"[1]; Table 6, P. aeruginosa 15442, M9GY, 72 hours",1.00
same,SI (calculated synergy index),"[1]; Table 6, P. aeruginosa 15442, TSB, 48 hours",1.00
same,MIC,[2],30 µg/mL
same,MIC,"[3]; ATCC10231, 24 h, read-out: MIC of component acting alone (QA / QB)",200 µg/mL
same,MIC,"[3]; ATCC10231, 24 h, read-out: Qa: end-point activity (MIC) of MI in the mixture (MI alone, QA, where Qb = 0)",125 µg/mL
same,MIC,"[3]; ATCC10231, 48 h, read-out: MIC of component acting alone (QA / QB)",200 µg/mL
same,MIC,"[3]; ATCC10231, 72 h, read-out: MIC of component acting alone (QA / QB)",200 µg/mL
same,SI (calculated synergy index),"[3]; Table 5, C. albicans 10231, PDB, 24 hours",1.00
same,SI (calculated synergy index),"[3]; Table 6, C. albicans 10231, PDB, 24 hours",1.00
same,"Qa: end-point activity (MIC) of MI in the mixture (MI alone, QA, where Qb = 0)","[3]; Table 6, C. albicans 10231, PDB, 24 hours, B = Cocamidopropyl PG-dimonium chloride phosphate",125 ppm
same,MIC,"[4]; ATCC16404, 96 h, read-out: MIC of component acting alone (QA / QB)",400 µg/mL
same,MIC,"[4]; ATCC16404, 96 h, read-out: Qa: end-point activity (MIC) of MI in the mixture (MI alone, QA, where Qb = 0)",400 µg/mL
same,MIC,"[4]; ATCC16404, 168 h, read-out: MIC of component acting alone (QA / QB)",500 µg/mL
same,MIC,"[4]; ATCC16404, 168 h, read-out: Qa: end-point activity (MIC) of MI in the mixture (MI alone, QA, where Qb = 0)",400 µg/mL
same,SI (calculated synergy index),"[4]; Table 5, 7 days",1.00
same,SI (calculated synergy index),"[4]; Table 6, 4 days",1.00
